Reference: ChEMBL document CHEMBL5335776, “Development, validation, and evaluation of a deep learning model to screen cyclin-dependent kinase 12 inhibitors in cancers” (Eur J Med Chem, 2023)

Assays:
BT-474 = assay: Cytotoxicity against human BT-474 cells incubated for 48 hrs by CCK-8 reagent microplate reader assay; assay type: functional, cell-based; conditions: BT-474, 48 h
CDK12/Cyclin K = CDK12/Cyclin K (Homo sapiens, UniProt Q9NYV4); assay: Inhibition of CDK12/Cyclin K (unknown origin) preincubated for 10 mins followed by substrate and ATP addition measured after 200 mins by ADP-Glo luminescence assay; assay type: protein-complex assay
Sequence of CDK12/Cyclin K (O75909 whole entry): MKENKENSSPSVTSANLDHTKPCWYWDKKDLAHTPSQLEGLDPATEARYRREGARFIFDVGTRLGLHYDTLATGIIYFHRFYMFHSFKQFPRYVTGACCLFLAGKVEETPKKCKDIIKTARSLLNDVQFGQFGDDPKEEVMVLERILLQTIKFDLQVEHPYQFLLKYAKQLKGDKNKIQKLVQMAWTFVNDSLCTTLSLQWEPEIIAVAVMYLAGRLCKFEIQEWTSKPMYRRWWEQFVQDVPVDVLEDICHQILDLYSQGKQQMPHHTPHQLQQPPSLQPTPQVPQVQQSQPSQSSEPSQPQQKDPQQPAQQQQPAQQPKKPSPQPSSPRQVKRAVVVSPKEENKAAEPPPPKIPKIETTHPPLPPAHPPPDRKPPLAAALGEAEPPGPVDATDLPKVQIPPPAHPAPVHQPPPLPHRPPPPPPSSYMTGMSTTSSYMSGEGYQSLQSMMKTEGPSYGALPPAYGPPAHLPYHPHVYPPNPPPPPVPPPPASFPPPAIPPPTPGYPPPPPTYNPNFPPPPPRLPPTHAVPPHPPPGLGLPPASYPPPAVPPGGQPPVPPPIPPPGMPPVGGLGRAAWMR
Sequence of CDK12/Cyclin K (Q9NYV4 whole entry): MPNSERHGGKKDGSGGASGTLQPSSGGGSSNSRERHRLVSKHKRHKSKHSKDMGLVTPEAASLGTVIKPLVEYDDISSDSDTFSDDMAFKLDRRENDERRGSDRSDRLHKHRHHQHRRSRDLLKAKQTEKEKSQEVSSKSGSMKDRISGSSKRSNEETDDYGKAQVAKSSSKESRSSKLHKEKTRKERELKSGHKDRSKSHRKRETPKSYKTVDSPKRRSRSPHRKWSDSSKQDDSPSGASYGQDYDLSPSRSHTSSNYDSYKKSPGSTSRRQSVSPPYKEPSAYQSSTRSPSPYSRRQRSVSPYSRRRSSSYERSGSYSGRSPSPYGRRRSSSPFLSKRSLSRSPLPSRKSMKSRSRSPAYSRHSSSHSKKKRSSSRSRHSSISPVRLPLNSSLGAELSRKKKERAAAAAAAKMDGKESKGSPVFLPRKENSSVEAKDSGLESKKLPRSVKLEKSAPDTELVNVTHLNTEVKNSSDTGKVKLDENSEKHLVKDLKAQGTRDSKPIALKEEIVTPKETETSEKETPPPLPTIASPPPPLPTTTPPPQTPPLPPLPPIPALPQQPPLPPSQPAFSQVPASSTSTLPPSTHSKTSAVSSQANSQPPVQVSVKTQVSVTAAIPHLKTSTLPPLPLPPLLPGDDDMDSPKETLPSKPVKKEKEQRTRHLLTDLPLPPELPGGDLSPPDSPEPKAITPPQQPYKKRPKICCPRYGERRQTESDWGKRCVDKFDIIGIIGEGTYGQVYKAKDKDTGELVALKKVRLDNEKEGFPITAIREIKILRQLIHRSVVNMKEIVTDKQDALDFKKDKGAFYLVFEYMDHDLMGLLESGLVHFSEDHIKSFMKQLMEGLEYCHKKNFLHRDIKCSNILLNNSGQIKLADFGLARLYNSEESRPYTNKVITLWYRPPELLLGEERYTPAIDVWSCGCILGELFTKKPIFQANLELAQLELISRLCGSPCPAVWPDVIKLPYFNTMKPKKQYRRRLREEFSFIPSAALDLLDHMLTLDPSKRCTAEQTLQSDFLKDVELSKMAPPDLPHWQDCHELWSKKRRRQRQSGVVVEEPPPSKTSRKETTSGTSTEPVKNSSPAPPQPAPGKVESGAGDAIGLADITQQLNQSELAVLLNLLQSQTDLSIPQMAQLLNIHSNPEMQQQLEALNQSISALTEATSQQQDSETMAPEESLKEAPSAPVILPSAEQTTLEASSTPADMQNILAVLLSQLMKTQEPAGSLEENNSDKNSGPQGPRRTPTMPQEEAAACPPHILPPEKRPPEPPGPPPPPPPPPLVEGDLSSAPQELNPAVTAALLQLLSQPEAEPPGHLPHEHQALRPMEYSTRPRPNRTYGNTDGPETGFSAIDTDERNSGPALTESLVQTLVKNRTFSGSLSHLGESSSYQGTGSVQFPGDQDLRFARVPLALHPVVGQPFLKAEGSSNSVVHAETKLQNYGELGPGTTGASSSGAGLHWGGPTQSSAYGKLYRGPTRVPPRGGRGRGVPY

[1] = molecular target: Cyclin-dependent kinase 13/Cyclin-K (Homo sapiens, UniProt Q14004); assay: Inhibition of CDK13/Cyclin K (unknown origin) preincubated for 10 mins followed by substrate and ATP addition measured after 200 mins by ADP-Glo luminescence assay; assay type: protein-complex assay
Sequence of Cyclin-dependent kinase 13/Cyclin-K (Q14004 whole entry): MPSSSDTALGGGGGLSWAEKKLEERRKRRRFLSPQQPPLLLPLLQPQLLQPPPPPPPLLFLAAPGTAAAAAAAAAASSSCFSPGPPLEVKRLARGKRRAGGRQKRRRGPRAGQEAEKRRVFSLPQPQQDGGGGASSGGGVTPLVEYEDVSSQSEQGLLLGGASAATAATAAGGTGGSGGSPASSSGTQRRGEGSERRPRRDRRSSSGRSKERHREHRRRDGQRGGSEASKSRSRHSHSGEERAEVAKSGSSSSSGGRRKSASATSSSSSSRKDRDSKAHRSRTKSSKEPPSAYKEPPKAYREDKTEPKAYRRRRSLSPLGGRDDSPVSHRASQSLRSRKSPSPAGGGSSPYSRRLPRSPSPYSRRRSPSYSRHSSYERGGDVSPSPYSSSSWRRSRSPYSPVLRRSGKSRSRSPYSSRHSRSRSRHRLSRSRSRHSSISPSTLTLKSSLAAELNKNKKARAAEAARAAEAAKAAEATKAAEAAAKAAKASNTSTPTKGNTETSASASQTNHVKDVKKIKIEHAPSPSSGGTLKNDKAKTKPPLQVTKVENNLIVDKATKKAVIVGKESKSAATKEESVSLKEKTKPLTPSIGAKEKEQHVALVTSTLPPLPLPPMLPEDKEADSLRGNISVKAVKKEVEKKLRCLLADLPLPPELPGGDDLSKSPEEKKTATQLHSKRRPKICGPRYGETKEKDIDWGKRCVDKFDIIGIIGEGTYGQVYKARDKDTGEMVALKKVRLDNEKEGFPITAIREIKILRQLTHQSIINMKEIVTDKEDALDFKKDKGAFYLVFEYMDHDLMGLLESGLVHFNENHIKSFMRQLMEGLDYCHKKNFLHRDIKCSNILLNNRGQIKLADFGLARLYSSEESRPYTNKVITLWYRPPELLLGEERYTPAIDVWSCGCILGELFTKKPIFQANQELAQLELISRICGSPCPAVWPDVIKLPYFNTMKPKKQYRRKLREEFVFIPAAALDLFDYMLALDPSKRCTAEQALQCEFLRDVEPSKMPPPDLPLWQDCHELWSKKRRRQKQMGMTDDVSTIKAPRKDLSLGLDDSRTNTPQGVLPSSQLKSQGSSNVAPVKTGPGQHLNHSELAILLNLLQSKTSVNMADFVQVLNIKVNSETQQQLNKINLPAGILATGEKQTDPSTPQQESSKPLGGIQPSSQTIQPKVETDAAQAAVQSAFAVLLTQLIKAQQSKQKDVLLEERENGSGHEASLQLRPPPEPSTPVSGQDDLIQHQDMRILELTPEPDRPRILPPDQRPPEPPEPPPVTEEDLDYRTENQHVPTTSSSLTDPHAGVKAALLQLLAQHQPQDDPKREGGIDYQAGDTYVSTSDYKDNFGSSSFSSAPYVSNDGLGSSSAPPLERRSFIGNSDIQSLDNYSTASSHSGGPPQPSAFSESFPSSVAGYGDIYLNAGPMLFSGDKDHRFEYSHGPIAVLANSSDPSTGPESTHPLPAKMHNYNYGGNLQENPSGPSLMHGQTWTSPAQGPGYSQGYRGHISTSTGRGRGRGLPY
Sequence of Cyclin-dependent kinase 13/Cyclin-K (O75909 whole entry, further chain): as the sequence (O75909 whole entry) above

[2] = molecular target: T1, CDK12/Cyclin K (Homo sapiens) (UniProt O75909+Q9NYV4); assay: Inhibition of CDK12/Cyclin K (unknown origin) at 10 uM preincubated for 10 mins followed by substrate and ATP addition measured after 200 mins by ADP-Glo luminescence assay relative to control; assay type: protein-complex assay; conditions: time 210.0 min
T1 sequence (O75909 whole entry, looked up): as the sequence (O75909 whole entry) above
T1 sequence (Q9NYV4 whole entry, looked up): as the sequence (Q9NYV4 whole entry) above

[3] = molecular target: T1, CDK12/Cyclin K (Homo sapiens); assay: Inhibition of CDK12/Cyclin K (unknown origin) at 0.1 uM preincubated for 10 mins followed by substrate and ATP addition measured after 200 mins by ADP-Glo luminescence assay relative to control; assay type: protein-complex assay; conditions: time 210.0 min
[4] = molecular target: T1, CDK12/Cyclin K (Homo sapiens); assay: Inhibition of CDK12/Cyclin K (unknown origin) at 1 uM preincubated for 10 mins followed by substrate and ATP addition measured after 200 mins by ADP-Glo luminescence assay relative to control; assay type: protein-complex assay; conditions: time 210.0 min

COc1cc(F)ccc1-c1cc(Nc2cc(C[S@@](C)(=N)=O)ccn2)ncc1F
IC50 (BT-474): 853 nM
IC50 (CDK12/Cyclin K): 425 nM

Cc1cc(O)c(-c2ccc([C@@H](C)CN)cc2)c2c1[nH]c(=O)c1sccc12
IC50 (BT-474): 6260 nM

Cn1cc(C2=C(c3cn(CCCSC(=N)N)c4ccccc34)C(=O)NC2=O)c2ccccc21 [BISINDOLYLMALEIMIDE IX]
IC50 [1]: 206 nM
IC50 (CDK12/Cyclin K): 143 nM

C=CC(=O)Nc1cccc(Nc2cc(N3CCCC[C@H]3CCO)nc3c(CC)cnn23)c1
IC50 [1]: 29.3 nM
IC50 (BT-474): 490 nM
IC50 (CDK12/Cyclin K): 74.4 nM

Cn1ncc(-c2nc(N[C@H]3CC[C@H](N)CC3)ncc2F)c1CC1CC1
IC50 [1]: 21.5 nM
IC50 (BT-474): 11300 nM
IC50 (CDK12/Cyclin K): 53 nM

O=C1CC[C@@H](N2C(=O)c3cccc(OCCCCCOc4ccc(CC(=O)Nc5cc(C6CCC6)[nH]n5)cc4)c3C2=O)C(=O)N1
IC50 (BT-474): 42300 nM
IC50 (CDK12/Cyclin K): 749 nM

NCCCNc1ccc(Nc2nccc(Nc3cc(C4CC4)[nH]n3)n2)cc1
IC50 [1]: 154 nM
IC50 (BT-474): 9110 nM
IC50 (CDK12/Cyclin K): 260 nM

CN(C)C/C=C/C(=O)Nc1ccc(C(=O)N2CCC[C@@H](Nc3ncc(Cl)c(-c4c[nH]c5ccccc45)n3)C2)cc1
IC50 [1]: 40 nM
inhibition [2]: 33%
IC50 (CDK12/Cyclin K): 152 nM
inhibition [3]: 98.7%
inhibition [4]: 96.7%

CN1CCN(Cc2ccc(NC(=O)c3n[nH]cc3Nc3ncnc4[nH]ccc34)cc2)CC1
IC50 [1]: 187 nM
IC50 (BT-474): 23900 nM
IC50 (CDK12/Cyclin K): 183 nM
